The source of these data is patent US9642859B2, “Use of capsazepine and analogs thereof to treat cancer” (THE BOARD OF REGENTS OF THE UNIVERSITY OF TEXAS SYSTEM, priority 2012, dated 2017).

pIC50, pKi: −log10 of the molar value. Where two headings read alike, the source gives them in different places. A value given as a limit tells only on which side of the number the result lay.

Data set [1] addresses T1, TRPM8 (Homo sapiens, UniProt Q7Z2W7). The conditions noted are these: cited from earlier work.
Target sequence in this assay (Q7Z2W7 whole entry, species assumed): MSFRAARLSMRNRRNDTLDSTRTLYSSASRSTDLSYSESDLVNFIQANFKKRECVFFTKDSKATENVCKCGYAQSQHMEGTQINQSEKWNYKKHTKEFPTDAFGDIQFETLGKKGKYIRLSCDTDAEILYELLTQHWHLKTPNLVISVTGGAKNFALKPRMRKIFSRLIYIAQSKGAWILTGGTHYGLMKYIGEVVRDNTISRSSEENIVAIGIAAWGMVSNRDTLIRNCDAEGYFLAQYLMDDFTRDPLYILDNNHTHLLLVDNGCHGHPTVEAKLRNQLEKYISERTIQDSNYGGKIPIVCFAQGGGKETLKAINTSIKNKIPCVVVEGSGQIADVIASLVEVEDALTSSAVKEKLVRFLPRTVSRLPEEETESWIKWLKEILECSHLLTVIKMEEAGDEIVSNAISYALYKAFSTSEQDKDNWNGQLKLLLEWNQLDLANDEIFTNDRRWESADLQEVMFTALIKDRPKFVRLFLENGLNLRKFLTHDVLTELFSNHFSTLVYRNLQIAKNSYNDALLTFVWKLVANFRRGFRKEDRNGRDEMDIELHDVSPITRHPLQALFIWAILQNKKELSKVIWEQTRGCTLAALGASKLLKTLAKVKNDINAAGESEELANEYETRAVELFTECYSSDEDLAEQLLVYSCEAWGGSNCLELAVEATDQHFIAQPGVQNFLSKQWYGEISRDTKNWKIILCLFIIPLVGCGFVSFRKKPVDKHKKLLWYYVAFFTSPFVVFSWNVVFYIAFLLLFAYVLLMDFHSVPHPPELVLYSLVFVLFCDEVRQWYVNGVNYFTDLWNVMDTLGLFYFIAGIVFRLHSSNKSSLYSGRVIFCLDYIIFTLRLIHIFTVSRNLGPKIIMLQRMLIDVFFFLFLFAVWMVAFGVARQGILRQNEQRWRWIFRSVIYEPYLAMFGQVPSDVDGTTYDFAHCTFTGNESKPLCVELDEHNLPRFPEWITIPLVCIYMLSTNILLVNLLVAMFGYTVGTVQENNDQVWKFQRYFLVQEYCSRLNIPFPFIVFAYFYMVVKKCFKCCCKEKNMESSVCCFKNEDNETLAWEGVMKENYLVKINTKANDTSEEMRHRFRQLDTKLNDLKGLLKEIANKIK
Data set [2] concerns the target T2, TRPA1 (Homo sapiens, UniProt O75762). Conditions: cited from earlier work.
Target sequence in this assay (O75762 whole entry, species assumed): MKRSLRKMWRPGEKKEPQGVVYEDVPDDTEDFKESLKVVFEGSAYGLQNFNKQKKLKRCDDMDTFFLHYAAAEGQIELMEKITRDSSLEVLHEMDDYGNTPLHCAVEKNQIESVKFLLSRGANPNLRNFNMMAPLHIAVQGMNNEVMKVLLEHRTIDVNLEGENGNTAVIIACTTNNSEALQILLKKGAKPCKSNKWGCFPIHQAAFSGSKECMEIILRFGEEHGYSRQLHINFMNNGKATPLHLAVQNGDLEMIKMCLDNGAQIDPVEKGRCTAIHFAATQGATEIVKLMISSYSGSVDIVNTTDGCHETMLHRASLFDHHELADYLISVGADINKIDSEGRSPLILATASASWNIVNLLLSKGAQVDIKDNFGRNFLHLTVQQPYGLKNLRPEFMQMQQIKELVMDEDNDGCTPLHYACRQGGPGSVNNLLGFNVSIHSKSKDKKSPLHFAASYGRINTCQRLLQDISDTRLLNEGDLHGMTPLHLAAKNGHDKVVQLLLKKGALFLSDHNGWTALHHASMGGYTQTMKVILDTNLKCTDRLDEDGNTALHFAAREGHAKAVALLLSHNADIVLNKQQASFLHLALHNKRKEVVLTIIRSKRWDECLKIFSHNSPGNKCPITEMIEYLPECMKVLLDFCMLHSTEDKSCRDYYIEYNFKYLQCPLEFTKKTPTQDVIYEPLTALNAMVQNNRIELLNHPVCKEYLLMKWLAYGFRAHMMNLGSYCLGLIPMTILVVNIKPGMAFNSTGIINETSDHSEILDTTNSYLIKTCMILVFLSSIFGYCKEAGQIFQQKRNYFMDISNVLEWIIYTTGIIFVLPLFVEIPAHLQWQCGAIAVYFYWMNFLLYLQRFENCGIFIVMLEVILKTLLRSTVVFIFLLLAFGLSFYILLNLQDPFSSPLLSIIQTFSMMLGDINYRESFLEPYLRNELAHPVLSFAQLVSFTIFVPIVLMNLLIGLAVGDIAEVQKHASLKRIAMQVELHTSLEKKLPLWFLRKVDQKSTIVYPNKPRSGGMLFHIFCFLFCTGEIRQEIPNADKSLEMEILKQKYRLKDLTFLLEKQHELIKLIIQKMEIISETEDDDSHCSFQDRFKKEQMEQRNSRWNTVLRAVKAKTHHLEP
Data set [3] deals with CFA-induced thermal hyperalgesia. The conditions noted are these: cited from earlier work.
The test system of data set [4] is carrageenan-induced thermal hyperalgesia. Conditions: cited from earlier work.
Data set [5] concerns MDA231 breast cancer cells. The experiment in a line: Cell viability assay of MDA231 cells with and without NAC. The data set is classed as cell-based, human. Conditions: 10 mM NAC.
For data set [6], the system named is PC3 prostate cancer cells. As to the kind of experiment: Cell viability assay of PC3 cells with and without NAC. The data set is classed as cell-based, human. The conditions noted are these: 10 mM NAC, prostate cancer cells.
In a further data set the test system is OSCC cell lines. The experiment in a line: ROS assays by flow cytometry (DCF-DA). The data set is classed as cell-based, human. Conditions: 1 h. Here is the method:
FIGS. 1I-1 to 1I-3. Reactive oxygen species (ROS) assays. The level of ROS in OSCC cell lines was examined by flow cytometry using 2,7-dichlorodihydrofluorescein diacetate (DCFH-DA; Sigma). Approximately 3×10^5 cells were plated in 12-well plates. To detect ROS, cells were incubated for 30 min at 37° C. with DCF-DA, washed and then treated for 1 h with 30 μM capsazepine (grey, thick line), 150 μM capsaicin (grey, thin line), 30 μM capsazepine+150 μM capsaicin (black line), or vehicle control (dotted line). The cells were harvested, washed twice, and analyzed by flow cytometry.
FIGS. 1I-4(a)-(b) to 1I-6(a)-(b). Induction of ROS in OSCC cell lines. (a). ROS induction in OSCC cell lines following 1 h treatment with 30 μM CPZ (black line) compared to vehicle control. (b). ROS induction in OSCC cell lines following 1 h treatment with 30 μM CPZ is reversed by NAC co-treatment (black line) as indicated in the shift in their peaks to the left.
ROS levels in OSCC cell lines were examined by flow cytometry using 2,7-dichlorodihydrofluorescein diacetate (DCF-DA; Sigma-Aldrich, St. Louis, Mo.). Cells (3×10^5) were plated in 12-well plates and incubated for 30 min with DCF-DA at 37° C. then treated with 30 μM capsazepine using phenol free media with and without 10 mM NAC. Treated cells were incubated for 1 h at 37° C., harvested, washed twice, and analyzed by FACS.

The test system of data set [7] is OSCC cell lines (HSC3, SCC4, and SCC25).
Procedure: Cell viability assays reported as % of vehicle control (n=3). […] VEH=delivery vehicle control without CAP or CPZ. *p<0.05, ***p<0.001.
FIG. 1H-1: Cell viability assays of OSCC cell lines treated with 30 μM CPZ alone or in combination with 10 mM N-Acetyl-L-Cysteine (NAC) for 24 h (n=4); ***p<0.001.
Human OSCC Cell Lines. The human OSCC cell lines MDA231, PS3, SCC4 and SCC25 were obtained from ATCC (American Type Culture Collection, Rockville, Md.). The HSC3 cell line was obtained from the Japanese Cell Resource Bank (Osaka, Japan). […] Cells were maintained in DMEM (GIBCO, Carlsbad, Calif.) supplemented with 10% FBS at 37° C. in 5% CO2. Both cell lines were derived from primary OSCC tumors from the tongues of male patients in their fifth generation of life. Data regarding pertinent medical history, treatment, outcome of care and recurrence were not available.
Statistical Analysis. Statistical analyses were performed using GraphPad Prism4 (San Diego, Calif.). Experiments were performed in triplicate and results are represented as means+SD except when indicated. […] Cytotoxicity assays of cell viability were analyzed by one-way ANOVA and Bonferroni's post-hoc test (n=3).
Data set [8] concerns capsaicin-evoked flare and acute heat-evoked pain. The conditions noted are these: Phase I; cited from earlier work.
In another data set the test system is HSC3 cells. The experiment in a line: Cell viability assay of HSC3 cells, dose response curve. The data set is classed as cell-based. Conditions: Homo sapiens, HSC-3, HSC3 cells, FIG. 1K. From the text: FIG. 1K. Cell viability assay of HSC3 cells treated with increasing concentrations of curcumin; […]
The conditions of data set [9]: rats, 30 mg per kg, orally; cited from earlier work.
For a further data set, the system named is bone-cancer pain. Conditions: in vivo model of bone-cancer pain; cited from earlier work.
For data set [10], the system named is CFA-induced mechanical hyperalgesia. Conditions: cited from earlier work.
For data set [11], the system named is partial nerve-ligation model. The conditions noted are these: cited from earlier work.
In data set [12] the target is T3, TRPV1 (Homo sapiens, UniProt Q8NER1). Conditions: read-out: hIC50 (45Ca2+ uptake); cited from earlier work.
Target sequence in this assay (Q8NER1 whole entry): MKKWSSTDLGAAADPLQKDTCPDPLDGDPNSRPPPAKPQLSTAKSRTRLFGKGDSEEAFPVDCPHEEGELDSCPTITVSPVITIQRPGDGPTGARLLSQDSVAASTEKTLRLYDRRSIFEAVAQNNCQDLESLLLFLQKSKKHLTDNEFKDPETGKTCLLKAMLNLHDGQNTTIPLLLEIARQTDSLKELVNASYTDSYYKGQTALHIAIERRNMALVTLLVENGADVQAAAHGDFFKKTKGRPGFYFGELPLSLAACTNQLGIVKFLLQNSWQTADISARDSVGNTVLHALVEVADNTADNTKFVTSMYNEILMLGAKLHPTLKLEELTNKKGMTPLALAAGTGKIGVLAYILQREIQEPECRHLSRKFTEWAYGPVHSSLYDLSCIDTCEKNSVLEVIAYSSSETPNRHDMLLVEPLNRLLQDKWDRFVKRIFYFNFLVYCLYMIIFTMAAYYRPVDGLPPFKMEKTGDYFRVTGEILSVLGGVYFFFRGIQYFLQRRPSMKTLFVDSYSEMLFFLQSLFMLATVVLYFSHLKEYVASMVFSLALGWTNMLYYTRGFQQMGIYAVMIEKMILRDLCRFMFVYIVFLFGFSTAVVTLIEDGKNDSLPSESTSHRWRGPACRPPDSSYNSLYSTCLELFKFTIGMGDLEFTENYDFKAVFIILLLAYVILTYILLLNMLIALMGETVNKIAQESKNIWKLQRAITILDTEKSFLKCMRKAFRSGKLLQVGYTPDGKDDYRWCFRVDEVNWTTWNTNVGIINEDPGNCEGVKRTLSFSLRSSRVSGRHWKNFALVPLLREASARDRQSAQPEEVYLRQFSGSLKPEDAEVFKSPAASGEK
The test system of a further data set is OKF6 cells. As to the kind of experiment: Cell viability assay of immortalized non-malignant oral keratinocytes. The data set is classed as cell-based. The conditions noted are these: CAP 150 μM, 24 hours. From the text:
FIG. 1D-2. […] Treatment with high concentrations of CAP induces death of normal, non-malignant OKF6 cells. The effect of which was reversed by the pre-treatment with CPZ.

The subject of data set [13] is OSCC cell lines (HSC3, SCC4, and SCC25). The experiment in a line: Calcium imaging of OSCC cell lines. The data set is classed as cell-based, human. Here is the method: FIGS. 1J-1 to 1J-2. FIGS. 1J-1(a) to (c): […] FIGS. 1J-2(a) to (c): […] Arrow indicates time point when treatment was added. […] This was due to the toxic effects of this high capsaicin concentration which permeablized the cell membrane allowing calcium to flow freely […] the cell. This was not reversed by capsazepine. […] These finding confirm that activation of TRPV1 is not the mechanism by which cell death is induced using capsazepine.

The test system of data set [14] is immortalized human bronchiolar epithelial cell line transformed with a TRPV1 insert. Conditions: TRPV1-overexpressing cultured cells, treatment with CAP; cited from earlier work.
For data set [15] the following is noted: cited from earlier work.
For data set [16], the target named is T3, TRPV1. The conditions noted are these: read-out: hKi (FLIPR); cited from earlier work.
Target sequence in this assay (Q8NER1 whole entry): as above
In data set [17] the test system is TRPV4 and other TRP channels. Conditions: cited from earlier work.
In data set [18] the target is T3, TRPV1. The conditions noted are these: cited from earlier work.
Target sequence in this assay (Q8NER1 whole entry, species assumed): as the sequence (Q8NER1 whole entry) above
A further data set has as its target TRPV3 (Homo sapiens, UniProt Q8NET8). The conditions noted are these: read-out: hIC50 at TRPV3; cited from earlier work.
A further data set deals with TRPV4 (Homo sapiens, UniProt Q9HBA0). Conditions: read-out: hIC50 at TRPV4; cited from earlier work.
Chain of TRPV4 (Q9HBA0 whole entry): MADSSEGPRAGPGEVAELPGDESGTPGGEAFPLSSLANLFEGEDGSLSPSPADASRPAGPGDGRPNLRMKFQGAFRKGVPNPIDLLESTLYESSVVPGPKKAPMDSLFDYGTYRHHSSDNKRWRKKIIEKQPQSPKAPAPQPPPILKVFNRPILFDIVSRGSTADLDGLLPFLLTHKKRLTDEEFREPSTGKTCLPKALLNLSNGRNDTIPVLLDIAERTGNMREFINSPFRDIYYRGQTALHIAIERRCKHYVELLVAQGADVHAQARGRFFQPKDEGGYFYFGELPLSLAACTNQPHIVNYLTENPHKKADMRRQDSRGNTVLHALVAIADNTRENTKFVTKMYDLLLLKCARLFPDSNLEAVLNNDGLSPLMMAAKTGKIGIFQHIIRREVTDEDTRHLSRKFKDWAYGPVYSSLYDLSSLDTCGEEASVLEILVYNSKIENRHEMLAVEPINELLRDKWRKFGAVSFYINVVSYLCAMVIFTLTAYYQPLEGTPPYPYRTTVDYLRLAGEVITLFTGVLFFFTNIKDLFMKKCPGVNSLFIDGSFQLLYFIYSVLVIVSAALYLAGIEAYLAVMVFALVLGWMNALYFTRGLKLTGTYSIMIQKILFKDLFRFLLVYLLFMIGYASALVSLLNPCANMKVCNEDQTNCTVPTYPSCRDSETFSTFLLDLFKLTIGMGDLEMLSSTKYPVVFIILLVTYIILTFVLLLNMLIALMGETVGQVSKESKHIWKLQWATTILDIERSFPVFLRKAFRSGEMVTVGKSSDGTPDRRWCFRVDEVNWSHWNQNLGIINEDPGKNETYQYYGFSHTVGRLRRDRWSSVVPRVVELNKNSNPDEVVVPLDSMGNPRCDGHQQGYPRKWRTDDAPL
Data set [19] concerns the target T2, TRPA1. The conditions noted are these: read-out: hIC50 at TRPA1; cited from earlier work.
Target sequence in this assay (O75762 whole entry): as the sequence (O75762 whole entry, species assumed) above
For data set [20], the target named is T1, TRPM8. The conditions noted are these: read-out: hIC50 at TRPM8; cited from earlier work.
Target sequence in this assay (Q7Z2W7 whole entry): as the sequence (Q7Z2W7 whole entry, species assumed) above

Chain of TRPV3 (Q8NET8 whole entry): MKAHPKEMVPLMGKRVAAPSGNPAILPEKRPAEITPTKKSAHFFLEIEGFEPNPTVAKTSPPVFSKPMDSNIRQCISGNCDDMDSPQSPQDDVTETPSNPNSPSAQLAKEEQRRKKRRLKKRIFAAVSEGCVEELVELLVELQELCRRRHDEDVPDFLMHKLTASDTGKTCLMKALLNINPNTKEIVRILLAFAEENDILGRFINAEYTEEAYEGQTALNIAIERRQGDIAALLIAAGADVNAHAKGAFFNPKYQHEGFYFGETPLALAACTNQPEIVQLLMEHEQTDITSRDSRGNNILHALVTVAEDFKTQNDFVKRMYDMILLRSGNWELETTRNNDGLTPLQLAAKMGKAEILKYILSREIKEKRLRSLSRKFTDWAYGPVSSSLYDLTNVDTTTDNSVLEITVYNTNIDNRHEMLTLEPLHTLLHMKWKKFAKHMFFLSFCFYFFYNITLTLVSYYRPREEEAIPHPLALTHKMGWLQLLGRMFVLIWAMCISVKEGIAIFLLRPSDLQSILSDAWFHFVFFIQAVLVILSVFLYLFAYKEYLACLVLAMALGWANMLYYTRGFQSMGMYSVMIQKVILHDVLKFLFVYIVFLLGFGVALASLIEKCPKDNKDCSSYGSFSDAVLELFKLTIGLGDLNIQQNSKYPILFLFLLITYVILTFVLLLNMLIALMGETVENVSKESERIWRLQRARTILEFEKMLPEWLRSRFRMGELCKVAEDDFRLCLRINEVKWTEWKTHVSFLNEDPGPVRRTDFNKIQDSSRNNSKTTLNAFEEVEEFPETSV

Take `O=C(NCc1ccc(C(F)(F)F)cc1)Nc1cccc2cnccc12` [A-425619]: the results for the pIC50 on TRPM8 [1] and at TRPA1 [2] were 5.10 and below 5.00, respectively. In [3] (in vivo), the “ED50, CFA-induced thermal hyperalgesia” value is 10 mg per kg.
On to `FC(F)(F)c1ccc(Nc2ncnc3cc(-c4ncccc4C(F)(F)F)ccc23)cc1` [Quinazoline analog], for which the “block of carrageenan-induced thermal hyperalgesia” value in data set [4] (at 3 mg per kg) is 80%. Moreover, the “MED, carrageenan-induced thermal hyperalgesia” value in [4] (minimum effective dose) is recorded as 0.1 mg per kg.
In the case of `CC(=O)N[C@@H](CS)C(=O)O` [NAC, N-Acetyl-L-Cysteine], the “effect of NAC on the effects of CPZ” value is on record as “reverse significantly” in [5]; “reverse significantly” in data set [6]; “reverse significantly” in [7] (10 mM NAC, all OSCC cell lines tested). For the same compound, the “ROS induction by 30 μM CPZ with NAC co-treatment” value with OSCC cell lines (10 mM NAC) is given as “reversed”.
Regarding `O=C(Nc1ccccc1Br)N[C@@H]1CCN(c2ccc(C(F)(F)F)cn2)C1` [SB-705498], in [8], the “acute heat-evoked pain on non-sensitized skin” value is listed as “reduced” and the capsaicin-evoked flare entry is given as “reduced”.
As to `COc1cc(/C=C/C(=O)CC(=O)/C=C/c2ccc(O)c(OC)c2)ccc1O` [curcumin], in the data set with HSC3 cells, the pIC50 was 4.05.
Turning to `O=C(Nc1ccc(C(F)(F)F)cn1)N1CCN(c2ncccc2C(F)(F)F)CC1` [JNJ-17203212], the “increase in core body temperature” value in data set [9] was around 1 °C. Moreover, the nocifensive behaviors result in the data set with bone-cancer pain was “Attenuates”.
For the compound `CC(C)(C)c1ccc(NC(=O)N2CCN(c3ncccc3Cl)CC2)cc1` [BCTC, N-(4-tertiarybutylphenyl)-4-(3-chloropyridin-2-yl)tetrahydropyrazine-1(2H)-carboxamide], the pIC50 on TRPM8 [1] is 6.84. Further, the CFA-induced thermal hyperalgesia result in [3] (3-30 mg per kg, orally) was “Inhibits”. Also, the CFA-induced mechanical hyperalgesia entry in data set [10] (3-30 mg per kg, orally) is on record as “Inhibits”. Moreover, in data set [11], the tactile allodynia entry is reported as “Reduces” and the thermal hyperalgesia result is listed as “Reduces”.
As for `C[C@@H]1CN(c2ncc(C(O)CO)cc2Cl)CCN1c1nc2c(-c3cc(F)c(F)c(F)c3)cc(C(F)(F)F)cc2[nH]1` (stereo partly drawn) [Compound 46ad], the pIC50 on TRPV1 [12] is 9.00. Besides, the “reversal of CFA-induced thermal hyperalgesia” value in data set [3] (30 mg per kg, orally) is “significant reversal”.
For the compound `COc1cc(CNC(=O)CCCC/C=C/C(C)C)ccc1O` [CAP, capsaicin], the pIC50 in the data set on HSC3 cells was around 3.82. The “cell viability of normal, non-malignant cells” value with OKF6 cells is reported as “induces death”. Also, the “level of ROS” value with OSCC cell lines (150 μM capsaicin) was “increase in ROS”. For the same compound, in data set [13] (20 μM capsaicin), the calcium influx result is “fails to cause an influx of calcium”. Also, the calcium flow entry in data set [13] (150 μM capsaicin (cytotoxic level)) was “calcium outflow occurred over a prolonged period of time”. In addition, in [7] (30 μM, 24 hrs, HSC3, SCC4, SCC25), the “cell viability / cytotoxic effects” value is reported as “does not”. For the same compound, in [7] (150 μM, HSC3, SCC4 and SCC25), the cell viability entry is reported as “significantly reduces cell viability”. Moreover, the apoptosis result in data set [14] is on record as “did result in apoptosis”.
As for AMG 517, on TRPV1 [12], the pIC50 was 9.05. For the same compound, the “block of CFA-induced thermal hyperalgesia” value in [3] (at 10 mg per kg) is on record as around 40%. In [3] (minimum effective dose), the “MED, CFA-induced thermal hyperalgesia” value is given as 1 mg per kg. In addition, in data set [15] (doses of 2 mg, in one patient), the body temperature increases was around 3 °C. Also, in [15] (seen at 0.3-3 mg/kg, oral administration), the hyperthermia entry is “up to 1.5 °C”.
`Cc1nc2cc(C(C)C)c(-c3ccc(Cl)c(OCC4CC4)c3)cc2c(=O)[nH]1` [Compound 26]: the “reversal of CFA-induced mechanical hyperalgesia” value in [10] (30 mg per kg, orally) is 60%. Further, in data set [11], the “reversal of mechanical hyperalgesia” value was 57%.
With `COc1cccc(NC(=O)/C=C/c2ccc(Cl)cc2)c1` [SB-366791], the pKi at TRPV1 [16] is 7.74. Also, the “selectivity versus TRPV4 and other TRP channels” value in [17] is “Selective”. Moreover, on TRPV1 [18], the “capsaicin and heat-mediated activation of TRPV1” value was “Inhibits”.
As to `CC(C)(C)c1ccc(/C=C/C(=O)Nc2ccc3c(c2)OCCO3)cc1` [AMG-9810], the pIC50 at TRPV3, at TRPV4, on TRPA1 [19] and on TRPM8 [20] was below 5.40 each time. The CFA-induced thermal hyperalgesia entry in [3] (30 mg per kg) was “Inhibits”. Also, in data set [10] (100 mg per kg), the CFA-induced mechanical hyperalgesia entry is recorded as “Inhibits”.
